Values after ≈ are worked out from the molar mass of the structure shown.
Experiments:
A549 cells = assay: MTT cell viability assay, A549 lung cancer cells; assay type: cell-based; settings: Homo sapiens, 24 h
Protocol: (§1) Human U373 glioma, MCF7 breast cancer, A549 lung cancer and PC-3 prostate cancer cells were grown in Dulbecco’s Modified Eagle Medium (DMEM), supplemented with 10% foetal bovine serum, 2 mM glutamine, 100 U/mL penicillin/streptomycin, at 37 °C in a humidified atmosphere containing 5% CO2 (logarithmic growth phase, routine passages every 3 days). The human breast epithelial cell line MCF10 was cultured in DMEM/F12 Ham’s Mixture supplemented with 5% horse serum, epithelial growth factor 20 ng/mL, insulin 10 μg/mL, hydrocortisone 0.5 mg/mL, cholera toxin 100 ng/mL, and 100 U/mL penicillin/streptomycin. […]
(§2) U373, MCF7, A549, PC-3, HUVEC, and MCF10 cell viability was determined by MTT assay using published protocols. MTT absorbance was quantified spectrophotometrically using a Glomax Multi Detection System microplate reader (Promega, Milano, Italy).
(§3) Statistical significance of raw data between the groups in each experiment was evaluated using unpaired Student’s t-test (single comparisons) or one-way ANOVA followed by the Newman-Keuls post-test (multiple comparisons). The IC50 and Emax concentration were determined by non-linear regression curve analysis of the concentration-effect responses. […] The results were expressed as means ± standard error of mean (SEM) of the indicated n values.

PC-3 cells = assay: MTT cell viability assay, PC-3 prostate cancer cells; assay type: cell-based; settings: Homo sapiens, 24 h
Protocol: as §1, §2, §3

caspase 7 [1] = assay: Cleaved-caspase 7 western blot in MCF10 cells; assay type: cell-based, human; settings: MCF10, 6 h; gibbilimbol B/eriopodol A 30 µg/mL, erioquinol 10 µg/mL
Source text: Using published protocols, MCF7 and MCF10 cells were homogenised in RIPA lysis buffer, supplemented with a cocktail of protease inhibitors (cOmplete; Roche Diagnostics, Milano, Italy). Equal amounts of proteins were separated by 4–20% SDS-polyacrylamide gel electrophoresis (Criterion TGX Stain-free precast gels and Criterion Cell system; Bio-Rad, Hercules, CA, USA) and transferred onto nitrocellulose membrane using a Bio-Rad Trans-Blot Turbo System. When indicated, the membranes were probed using the rabbit monoclonal anti-cleaved caspase 7 and anti-XIAP (Cell Signaling Technology) primary antibodies. After the incubation with the appropriate horseradish-peroxidase-conjugated secondary antibody (Cell Signaling Technology), bands were visualised using the Clarity Western ECL substrate with a ChemiDoc MP imaging system (Bio-Rad). To monitor for potential artefacts in loading and transfer among samples in different lanes, the blots were routinely treated with the Restore Western Blot Stripping Buffer (ThermoFisher Scientific) and re-probed with the goat anti-Lactate dehydrogenase (LDH)-A (Santa Cruz Biotechnology) and the mouse anti-vinculin primary antibodies. The stain-free gel was used as loading control as well. When appropriated, bands were quantified for densitometry using the Bio-Rad Image Lab software.
Figure S6. Western blot. […]

caspase 7 [2] = assay: Cleaved-caspase 7 immunofluorescence in U373 cells; assay type: cell-based, human; settings: U373, 6 h; gibbilimbol B/eriopodol A 30 µg/mL, erioquinol 10 µg/mL
Protocol: Using published protocols, MCF7 or U373 cells cultured in 120-mm coverslips were fixed in 4% paraformaldehyde in 0.1 M PB, pH 7.4, for 10 min. Cells were pre-incubated for 1 h min with 5% of normal goat serum (Life Technologies, Monza, Italy) in 0.1 M PB (pH 7.4) containing 0.1% Triton X-100, before overnight incubation with the rabbit monoclonal anti-cleaved caspase 7 (Cell Signaling Technology, Danvers, MA, USA). In double-label immunofluorescence experiments, the mouse monoclonal anti-cytochrome c primary antibody (Cell Signaling Technology) was used in conjunction with the rabbit monoclonal primary antibody directed to COX IV (Cell Signaling Technology). For fluorescence detection, coverslips were stained with the appropriate Alexa Fluor secondary antibodies (Life Technologies) and mounted on glass slides in a ProLong Gold Antifade Mountant (Life Technologies). DAPI and/or fluorescein phalloidin (cytoskeleton detection) staining was also used. Cells were analysed with a DMI4000 B automated inverted microscope equipped with a DCF310 digital camera (Leica Microsystems, Wetzlar, Germany). When indicated, confocal imaging was performed with a TCS SP8 System (Leica Microsystems). Image acquisitions were controlled by the Leica Application Suite X.

## CCCCCC/C=C\CCC1(O)C=CC(=O)C=C1 [Erioquinol, (Z)-4-(dec-3′-enyl)-4-hydroxycyclohexa-2,5-dien-1-one]
A549 cells
  IC50: 2.65 µg/mL (≈ 10.7 µM)
PC-3 cells
  IC50: 2.21 µg/mL (≈ 8.9 µM)

## CCCCCC/C=C/CCc1ccc(O)cc1 [Gibbilimbol B, (E)-4-(dec-3′-enyl)phenol]
Caspase 7 [1]
  activation of caspase 7: activation of caspase 7
Caspase 7 [2]
  activation of caspase 7: activation of caspase 7

— paper PMC6770071, “XIAP as a Target of New Small Organic Natural Molecules Inducing Human Cancer Cell Death” (Cancers, 2019)
